Assay [1] has as its target T1, WT ATP8B1 fragment (residues 803 to 880) (Homo sapiens, UniProt O43520).
T1 sequence (O43520 803-880): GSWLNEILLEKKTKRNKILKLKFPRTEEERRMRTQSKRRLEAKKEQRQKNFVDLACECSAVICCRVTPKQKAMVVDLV
Description: surface plasmon resonance, protein covalently coupled on CM5 chip. It is filed as binding. The note with it: PIP2 injected at different concentrations; acyl chains not told.

The target in assay [2] is T2, human ATP8B1 (full-length, N-terminal GST-tagged) (Homo sapiens, UniProt O43520).
T2 sequence (O43520 1-1251): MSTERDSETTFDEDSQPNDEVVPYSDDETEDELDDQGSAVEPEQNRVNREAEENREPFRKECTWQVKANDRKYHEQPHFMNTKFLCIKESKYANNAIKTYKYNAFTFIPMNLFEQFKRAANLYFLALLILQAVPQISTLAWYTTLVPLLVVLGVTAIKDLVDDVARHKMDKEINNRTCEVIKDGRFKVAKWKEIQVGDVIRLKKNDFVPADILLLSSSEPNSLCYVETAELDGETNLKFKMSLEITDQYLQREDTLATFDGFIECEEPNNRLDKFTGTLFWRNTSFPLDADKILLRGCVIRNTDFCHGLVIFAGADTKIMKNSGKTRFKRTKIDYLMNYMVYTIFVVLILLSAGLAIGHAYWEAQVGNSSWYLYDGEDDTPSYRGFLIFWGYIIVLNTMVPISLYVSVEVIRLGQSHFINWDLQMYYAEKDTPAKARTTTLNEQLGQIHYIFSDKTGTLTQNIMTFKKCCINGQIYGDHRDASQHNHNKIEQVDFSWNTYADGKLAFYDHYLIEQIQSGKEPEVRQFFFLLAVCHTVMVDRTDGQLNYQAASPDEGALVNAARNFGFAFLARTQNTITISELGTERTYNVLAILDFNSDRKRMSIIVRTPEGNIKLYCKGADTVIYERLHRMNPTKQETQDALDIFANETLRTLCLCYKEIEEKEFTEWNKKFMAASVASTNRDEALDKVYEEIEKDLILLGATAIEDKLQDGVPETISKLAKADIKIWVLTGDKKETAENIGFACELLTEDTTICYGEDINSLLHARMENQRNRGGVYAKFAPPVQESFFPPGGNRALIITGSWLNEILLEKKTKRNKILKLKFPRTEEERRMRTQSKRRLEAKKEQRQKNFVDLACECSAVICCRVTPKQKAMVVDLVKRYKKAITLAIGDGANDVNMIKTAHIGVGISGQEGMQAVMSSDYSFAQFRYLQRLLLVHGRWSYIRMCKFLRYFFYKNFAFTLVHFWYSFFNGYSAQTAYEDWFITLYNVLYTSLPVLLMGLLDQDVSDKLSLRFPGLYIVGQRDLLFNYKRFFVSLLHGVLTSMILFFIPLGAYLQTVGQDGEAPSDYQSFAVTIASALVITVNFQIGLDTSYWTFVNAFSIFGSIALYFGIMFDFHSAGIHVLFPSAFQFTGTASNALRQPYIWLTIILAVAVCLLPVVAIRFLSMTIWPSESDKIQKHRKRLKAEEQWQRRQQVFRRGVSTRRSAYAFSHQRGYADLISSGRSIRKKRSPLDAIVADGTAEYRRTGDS
Description: ATPase activity stimulated by phospholipid. Type of assay: biochemical. The note with it: activation of ATPase activity; acyl chains not told.

Assay [3] addresses T3, WT ATP8B1 fragment (residues 803 to 880) (Homo sapiens, UniProt O43520, K824A/R832A/R833A/R835A).
T3 sequence (O43520 803-880 K824A/R832A/R833A/R835A): T1 sequence (O43520 803-880) with K22A, R30A, R31A, R33A
Description: surface plasmon resonance, protein covalently coupled on CM5 chip. Type of assay: binding. The note with it: PIP2 injected at different concentrations; acyl chains not told.

Residue numbers refer to the chain shown, from its start.

What is called Kd is the concentration at which binding is half-saturated. Higher therefore signals a looser complex. Usually EC50 stands for the concentration at which the effect is half-maximal. A higher EC50 goes with a need for much substance. Take PIP2: the Kd was ~11.5 µM in assay [1] and ~63.6 µM in assay [3]. The same substance had an EC50 in assay [2] of 232 ± 35.2 µM.

For the origin of these results see article PMC12146700 (Proceedings of the National Academy of Sciences of the …, 2025).
